Measured values published in the OPERA property sets (Mansouri et al. 2018).
Peptide text beside a SMILES is read from it.

| SMILES | logP |
| --- | --- |
| CCc1ccc(O)cc1 | 2.58 |
| Ic1ccc2ccccc2n1 | 3.04 |
| COc1cc2c(c3c1c(=O)c1ccccc1n3C)C=CC(C)(C)O2 | 3.67 |
| COc1ccccc1C | 2.74 |
| CC(=O)N[C@@H](Cc1ccccc1)C(=O)NCC(N)=O (Ac-Phe-Gly-NH2) | -0.5 |
| O=[N+]([O-])c1ncn(CC(O)CCl)n1 (stereo unspecified) | 0.05 |
| CC(=O)OCC1=C(C(=O)O)N2C(=O)C(NC(=O)COc3ccccc3)C2SC1 (stereo unspecified) | 0.26 |
| CCNC(=O)CBr | 0.34 |
| Clc1ccc(-c2ccccc2)cc1 | 4.61 |
| COC(=O)CNC(=O)c1ccc([N+](=O)[O-])cc1 | 0.98 |
| NCCCCc1cccnc1 | 0.88 |
| Cc1cccc2cccnc12 | 2.6 |
| CON(C)C(=O)Nc1ccc(OCCc2ccc(C)cc2)cc1 | 3.81 |
| O=[N+]([O-])c1cccc(Br)c1 | 2.64 |
| ClCCc1ccccc1 | 2.95 |
| CC1(O)CC23C(O)C1CCC2(O)C(C)(O)C1C2OC2C(C)(C)C1(O)C(O)C3O (stereo unspecified) | -0.57 |
| CCCCC1CCCc2ncc(C(=O)OC)c(=O)n21 (stereo unspecified) | 1.77 |
| CN(C)C(N(C)C)=S(I)c1c(Cl)cccc1Cl (stereo unspecified) | 0 |
| C(=NN1CCCCC1)c1ccccc1 | 3.04 |
| CCCCCC(=O)NN | 0.48 |
| CC(=O)C(C)(C)C | 1.2 |
| O=C(Cn1c(=O)sc2ccc(Cl)cc21)N1CCNCC1 | 1.35 |
| CC(C)(O)C(C(=O)O)c1ccc(-c2ccccc2)cc1 (stereo unspecified) | 3.25 |
| CC(=O)N(C)Nc1ccccc1 | 1.31 |

| SMILES | logP |
| --- | --- |
| CCOc1cccc2cccnc12 | 2.25 |
| CN(C)c1ccc2c(c1)C(c1ccccc1Cl)=NCC(=O)N2C | 2.72 |
| CC(C)c1ccccc1N | 2.12 |
| NS(=O)(=O)c1ccccc1 | 0.31 |
| Oc1ccc(Cl)cc1Cc1cc(Cl)ccc1O | 4.26 |
| NC=O | -1.51 |
| O=C(CI)NC(CO)C(O)c1ccc([N+](=O)[O-])cc1 (stereo unspecified) | 1.03 |
| Nc1ccc(/N=N/c2ccccc2)cc1 | 3.41 |
| O=C1CCC(=O)N1c1cccc(I)c1 | 1.39 |
| c1ccc2c(c1)ccc1ncccc12 | 3.43 |
| O=C(O)Cc1ccc([N+](=O)[O-])cc1 | 1.39 |
| FC(F)(Cl)C(F)(F)Cl | 2.82 |
| CCCCCOC(=O)c1ccc(S(N)(=O)=O)cc1 | 2.71 |
| COc1c(O)c(C)c(C)c(O)c1OC | 1.6 |
| NS(=O)(=O)c1ccc([N+](=O)[O-])cc1 | 0.64 |
| CN(C)C(N(C)C)=S(I)c1cc(Cl)c(Cl)c(Cl)c1 (stereo unspecified) | 0.74 |
| Cc1cccc(N2C(=O)CCC2=O)c1 | 0.57 |
| COC1=CC(=O)C[C@@H](C)[C@]12Oc1c(Cl)c(OC)cc(OC)c1C2=O | 2.18 |
| N#CC(C#N)=NNc1ccccc1 | 2.67 |
| CNCC(CC(C)C)c1ccccc1 (stereo unspecified) | 3.76 |
| CN(C)CCNC(=O)c1ccccc1 | 1.1 |
| C=CCC1(C(C)C)C(=O)NC(=O)NC1=O | 1.15 |
| Nc1cc2c3ccccc3ccc2c2ccccc12 | 4.99 |

| SMILES | logP |
| --- | --- |
| O=C=O | 0.83 |
| NNC(=O)c1ccnc(-c2ccccc2)c1 | 1.36 |
| CCCCNC(=O)n1c(NC(=O)OC)nc2ccccc21 | 2.12 |
| CCOP(=S)(OCC)Oc1ccc(SC)cc1 | 4.16 |
| CC12CCC(=O)C=C1CCC1C3CCC4(CCC(=O)O4)C3CCC12C (stereo unspecified) | 2.98 |
| NNC(=O)c1ccncc1 | -0.7 |
| S=C=NCc1ccccc1 | 3.16 |
| Nc1cccc(Br)c1 | 2.1 |
| Nc1ccc(Cl)c([N+](=O)[O-])c1 | 2.06 |
| O=C(NC(=O)c1ccccc1O)c1ccccc1 | 1.38 |
| O=C(CN1CCCCC1)Nc1ccccc1[N+](=O)[O-] | 2.75 |
| Cc1cccnc1 | 1.2 |
| Fc1cccc(CCl)c1 | 2.77 |
| COc1ccc(CC#N)cc1OC | 1.15 |
| O=[N+]([O-])c1cc[n+]([O-])c2c(F)cccc12 | 1 |
| Oc1ccc(Cn2cc[nH]c2=S)cc1 | 1.02 |
| CC(C)(C)C#N | 1.08 |
| Cc1ccc(NC(=O)N(C)C)cc1Cl | 2.41 |
| NS(=O)(=O)c1nc2ccc(Cl)cc2s1 | 2.1 |
| Cn1ccc(=O)n(C)c1=O | -0.54 |
| CC(=O)c1cccc(S(I)=C(N(C)C)N(C)C)c1 (stereo unspecified) | -0.88 |
| O=C(O)Cc1ccccc1F | 1.5 |
| CCOc1ccc(O)cc1 | 1.81 |
| Cc1[nH]cnc1CSCCNc1cc[nH]c(=O)n1 | -0.4 |

| SMILES | logP |
| --- | --- |
| CC(C)(C)c1cc(O)ccc1[N+](=O)[O-] | 3.65 |
| OC[C@H]1O[C@@H](n2cnc3c(O)ncnc32)[C@H](O)[C@@H]1O | -2.1 |
| CC(=O)c1ccc(NC=O)cc1 | 0.94 |
| CNC(=O)Oc1cc(C)ccc1C | 2.03 |
| Nc1ccc2[nH]ccc2c1 | 0.7 |
| CCC1(CC)C(=O)NC(=O)NC1=O | 0.65 |
| CS(=O)(=O)c1cccc([N+](=O)[O-])c1 | 0.5 |
| Oc1ccccc1Br | 2.35 |
| Nc1ccc2nc3ccccc3cc2c1 | 2.62 |
| NCc1ccc([N+](=O)[O-])cc1 | 1.06 |
| CC(C)(O)C(=O)O | -0.36 |
| S=C1CCCN1 | -0.05 |
| O=C1CN=C(c2ccccc2F)c2ccccc2N1 | 2.38 |
| OC(c1ccc(Cl)cc1)(c1ccc(Cl)cc1)C1CC1 | 5.5 |
| O=C(O)c1cccs1 | 1.57 |
| Nc1ccc(Cc2ccc(N)cc2)cc1 | 1.59 |
| CC(=O)OCCn1c([N+](=O)[O-])cnc1C | 0.3 |
| O=C(O)c1ccc(O)cc1O | 1.63 |
| OCc1ccccc1O | 0.73 |
| CNCC(F)(F)F | 0.55 |
| COc1ccccc1C=C(C(C)=O)C(C)=O | 1.73 |
| COc1ccc(C(=O)N(C)C)cc1 | 0.96 |
| CN(C)CCCc1ccccc1 | 2.73 |
| CC(=O)Oc1ccccc1I | 2.55 |

| SMILES | logP |
| --- | --- |
| CCN(CC)CCN | 0.21 |
| COc1ccc(C)cc1N | 1.74 |
| CCCCCCCCOC(=O)n1cnc(CC(NC(=O)C2CCC(=O)N2)C(=O)N2CCCC2C(N)=O)c1 (stereo unspecified) | 1.82 |
| Nc1ccccc1 | 0.9 |
| CC(C)(N)Cc1ccc(Cl)cc1 | 2.6 |
| O=C(O)COc1ccc([N+](=O)[O-])cc1 | 1.48 |
| O=C1C(F)=C(N2CC2)C(=O)C(N2CC2)=C1N1CC1 | 0.14 |
| CC(=O)Nc1nccs1 | 0.76 |
| COc1ccc(C(C)=O)cc1 | 1.74 |
| Oc1ccc(C2CCCCC2)cc1 | 4.22 |
| CCC#N | 0.16 |
| c1ccc(COc2cccc3cccnc23)cc1 | 3.51 |
| CNP(=O)(OC)Oc1ccc(OC)cc1 (stereo unspecified) | 1.06 |
| c1ccc2c(c1)cnc1ccccc12 | 3.48 |
| O=C(c1ccccc1)c1ccc(O)cc1 | 3.07 |
| CC(C#N)c1ncc([N+](=O)[O-])[nH]1 (stereo unspecified) | -0.07 |
| Oc1ccc(-c2ccccc2)cc1 | 3.2 |
| CCOC(=O)C(=Cc1cccc(OCC)c1)C(C)=O | 2.71 |
| O=[N+]([O-])c1ncn(CC(O)CN2CC2)n1 (stereo unspecified) | -0.72 |
| CC(C)(C)c1ccccc1 | 4.11 |
| O=C(O)CC(O)C(=O)O (stereo unspecified) | -1.26 |
| O=C(O)Cc1ccccc1Nc1ccccc1 | 3.49 |
| COc1ccc2cc(C(C)C(=O)OCC(=O)N(CCO)CCO)ccc2c1 (stereo unspecified) | 1.7 |
| O=C1CCC(=O)N1c1ccc([N+](=O)[O-])cc1 | 0.46 |

| SMILES | logP |
| --- | --- |
| CCCOc1cc(N)ccc1C(=O)O | 1.53 |
| NC(CCCc1ccccc1)C(=O)O (stereo unspecified) | -0.36 |
| CCCCCCCCCCNC(=O)c1[nH]nc(C)c1[N+](=O)[O-] | 4.48 |
| CNCCN(C)C | -0.2 |
| CON(C)C(=O)Nc1ccc(N)cc1 | -0.16 |
| CCCCCC1=Nc2cc(Cl)c(S(N)(=O)=O)cc2S(=O)(=O)N1 | 2.01 |
| Nc1cc([N+](=O)[O-])cc([N+](=O)[O-])c1 | 1.89 |
| CCC(=O)c1ccccc1O | 2.54 |
| O=C(O)CCl | 0.22 |
| COP(=S)(OC)Oc1ccc(Sc2ccc(OP(=S)(OC)OC)cc2)cc1 | 5.96 |
| NS(=O)(=O)c1cccc(S(N)(=O)=O)c1 | -0.55 |
| COc1cc2c(c(OC)c1O)-c1ccc(OC)c(=O)cc1[C@@H](NC(=O)C(F)(F)F)CC2 | 1.67 |
| O=C(NP(=O)(N1CC1)N1CC1)c1ccc(Cl)cc1 | 0.97 |
| N=C(N)NCCCCc1ccccc1 | 1.59 |
| Clc1cc(Cl)c(Cl)c(-c2c(Cl)c(Cl)c(Cl)c(Cl)c2Cl)c1Cl | 8.16 |
| Cc1ccco1 | 1.85 |
| O=C(O)c1ccccc1Oc1ccccc1 | 3.11 |
| CNC(=O)Oc1cccc(N(C)C)c1 | 1.43 |
| COC(=O)Nc1nc2ccccc2[nH]1 | 1.52 |
| O=C(O)COc1cccc(NC(=O)c2ccccc2)c1 | 1.99 |
| Cc1[nH]cnc1CSCCNc1[nH]ccc(=O)c1[N+](=O)[O-] | -0.2 |
| CCN1CCN(CC)C1=S | 1.13 |
| COc1cc(C(=O)O)ccc1O | 1.43 |
| Cc1n[nH]c(C(N)=O)c1[N+](=O)[O-] | -0.38 |

| SMILES | logP |
| --- | --- |
| CCCCC1CC(C(=O)NC(C(C)O)C2OC(SC)C(O)C(O)C2O)N(C)C1 (stereo unspecified) | 0.56 |
| C[C@]12CC[C@H]3[C@@H](CCC4=CC(=O)CC[C@@]43C)[C@@H]1CC[C@@H]2C(=O)CO | 2.88 |
| Cc1cc(Cl)cc(Cl)c1NC1=NCCN1 | 2.38 |
| CCC(Br)C(=O)O (stereo unspecified) | 1.42 |
| CS(=O)(=O)c1ccc(C(=O)O)cc1 | 0.67 |
| COc1ccc2cc(C(C)C(=O)OCC(=O)N(C)CC(N)=O)ccc2c1 (stereo unspecified) | 1.37 |
| CCOC(=O)c1c[nH]cc1C | 2.14 |
| Oc1cccc(Cl)c1Cl | 2.84 |
| CCC(=O)NN | -1 |
| S=C1CCCO1 | 0.6 |
| FC(F)(F)c1nc2c(Cl)cc(Cl)c(Cl)c2[nH]1 | 3.78 |
| CCCCSCS(=O)CC(C)NC(=O)C=Cc1c(C)[nH]c(=O)[nH]c1=O (stereo unspecified) | 0.82 |
| NS(=O)(=O)c1ccc(Br)cc1 | 1.36 |
| CCCCCBr | 3.37 |
| O=C(NC(CO)C(O)c1ccc(I)cc1)C(Cl)Cl (stereo unspecified) | 2.22 |
| CCC(C)c1ccc(O)cc1 (stereo unspecified) | 3.08 |
| NS(=O)(=O)c1cc2c(cc1Br)NCNS2(=O)=O | 0.08 |
| O=C(O)Cc1ccccc1O | 0.85 |
| COC(=O)c1cccc(S(I)=C(N(C)C)N(C)C)c1 (stereo unspecified) | -0.75 |
| O=[N+]([O-])c1cccc(C(F)(F)F)c1 | 2.62 |
| NC(=O)CCN1CCc2cccc(Cl)c2CC1 | 1.64 |
| c1ccc(-c2ccncc2)nc1 | 1.58 |
